# Calls of active or inactive are those of the source.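 Rule for the calls: active = signal decrease with fitted half-maximal dose at or below ten times the highest valid tested dose; inconclusive = poor fit, or flat fit at 30 to 70% inhibition; inactive = the rest.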
# Biological target: Zinc finger protein mex-5 (Caenorhabditis elegans) (UniProt Q9XUB2)
# Experiment: inhibitors of MEX-5 RNA binding, dose response, biochemical, fluorescence polarization, C. elegans, cherry-picked, round 3 (AID 493250)
# Settings: purified MEX-5-MBP, FITC-TCR2 RNA fluorescence polarization
# Sequence of Zinc finger protein mex-5 (Caenorhabditis elegans) (Q9XUB2 whole entry, looked up): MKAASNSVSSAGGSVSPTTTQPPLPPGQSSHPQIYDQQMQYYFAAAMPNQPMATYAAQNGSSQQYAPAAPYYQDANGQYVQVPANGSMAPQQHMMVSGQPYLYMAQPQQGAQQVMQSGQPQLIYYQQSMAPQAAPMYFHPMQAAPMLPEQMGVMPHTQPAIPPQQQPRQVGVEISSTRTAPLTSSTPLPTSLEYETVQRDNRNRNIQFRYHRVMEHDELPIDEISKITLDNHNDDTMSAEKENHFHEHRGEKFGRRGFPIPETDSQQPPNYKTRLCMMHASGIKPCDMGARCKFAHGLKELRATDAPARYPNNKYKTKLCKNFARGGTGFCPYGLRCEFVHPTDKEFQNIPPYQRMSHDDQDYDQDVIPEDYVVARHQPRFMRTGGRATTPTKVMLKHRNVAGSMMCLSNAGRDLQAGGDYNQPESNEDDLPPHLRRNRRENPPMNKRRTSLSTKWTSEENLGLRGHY
row,SMILES,AC50
1,CCS(=O)(=O)C1=NN2C(=N)/C(=C\c3ccc(SCc4ccco4)o3)C(=O)N=C2S1,10.4 µM
2,O=[N+]([O-])c1ccccc1NC(=S)N/N=C/c1ccc(O)c(O)c1,10.4 µM
3,COc1ccc(OC)c(NC(=O)c2sc3nc(Cc4ccccc4)cc(C(F)(F)F)c3c2N)c1,6.44 µM
4,CCOC(=O)/C(=C/c1ccc(N2CCC(c3ccccc3)=N2)cc1)C(C)=O,2.43 µM
5,Cc1cc2c(C)nc(N/N=C/c3ccc([N+](=O)[O-])cc3)nc2o1,6.83 µM
6,OCCCc1nc2n(n1)C(c1ccccc1Cl)C=C(c1cccs1)N2 (stereo not given),10.1 µM
7,COc1ccc(Cl)cc1CN1CCN(c2nc(C)cc(C)c2C#N)CC1,9.41 µM
8,Cc1ccc(S(=O)(=O)c2cc3c(=O)n4ccccc4nc3n(C3CCCCC3)c2=N)cc1,> 10 µM (inactive)
9,CCOC(=O)C1C(=O)C=C(/C=C/c2ccc(N(C)C)cc2)CC1c1ccccc1 (stereo not given),7.41 µM

# Same assay, conditions: purified MEX-5-MBP, FITC-TCR2 RNA fluorescence polarization; at 10 µM (top of the series)
row,SMILES,"activity change, negative = inhibition"
1,Cc1c(C#N)c(O)[nH]c(=O)c1N=Nc1ccc(S(N)(=O)=O)cc1,inactive
2,CN=c1scc(-c2ccco2)n1/N=C/c1ccc(O)c(O)c1,inactive
3,Cc1ccc(C(=O)NNc2ncnc3c2cnn3C)cc1,inactive
4,COc1ccc(C(CC(=O)N2CCCC2)c2c(OC)cc(OC)c3ccc(=O)oc23)cc1 (stereo not given),inactive
5,Cc1ccc2cc(C#N)c(N3CCCN(C(=O)C4CCCO4)CC3)nc2c1C (stereo not given),inactive
6,COC(=O)C1=C(C)OC(N)=C(C#N)C1c1cc(OC)c(OCC(N)=O)cc1Cl (stereo not given),inactive
7,COc1cc(/C=C/c2nc(-c3ccccc3O)n[nH]2)cc(OC)c1OC,inactive
8,Brc1ccc(-c2cn3nc4c(nc3n2)CCCC4)cc1,inactive
9,Cc1ccc2c(c1)-c1ccccc1S(=O)(=O)N2,inactive
10,CN1CN(C)c2ccc([N+](=O)[O-])c3cccc1c23,inactive
11,O=C(CCc1ccccc1)N/N=C\c1cc2c(cc1Br)OCO2,inactive
12,COc1ccc(OC)c(/C=N/NC(=O)c2ccc(=O)[nH]n2)c1,inactive
13,Cc1cccc(-n2c(N)c(-c3nc4ccccc4n3C)c3nc4ccccc4nc32)c1,inactive
14,COc1ccc(CC(=O)NNc2ncnc3c2cnn3C)cc1,inactive
15,Cc1ccc(-c2nc(C=Nc3cccc(C)c3)c(O)o2)cc1,inactive
16,O=C1OC(C(=O)O)Cc2ccccc21 (stereo not given),inactive
17,Cn1cc(CNC(=O)C2c3ccccc3Oc3ccccc32)cn1,inactive
18,COCCNC(=S)N/N=C/c1c2ccccc2cc2ccccc12,inactive
19,Cc1cc(=O)n2[nH]c(N)c(N=Nc3ccccc3F)c2n1,inactive
20,CCOc1nc(-c2ccccc2)c2cc(Br)ccc2n1,inactive
21,O=C(O)COc1ccc(Br)cc1C(c1c(C(=O)O)[nH]c2ccccc12)c1c(C(=O)O)[nH]c2ccccc12,inactive
22,CN1CCCc2cc(C=O)ccc21,inactive

row,SMILES,"activity change, negative = inhibition"
1,CCCCCC(=O)N(Cc1ccccc1)c1c(N)n(CCOC)c(=O)[nH]c1=O,inactive
2,CCCCN(C(=O)c1ccc([N+](=O)[O-])o1)c1c(N)n(CCCC)c(=O)[nH]c1=O,inactive
3,Cc1nc2c3ccccc3nc(NNC(=O)CCC(=O)N3CCC(C)CC3)n2n1,inactive
4,O=C(N/N=C/c1cccnc1)c1ccc(O)cc1,inactive
5,Cc1ccc2c(c1Cl)NC(C(=O)O)C1CC(Sc3ccccc3[N+](=O)[O-])C(Cl)C21 (stereo not given),inactive
6,CCc1cc(-c2n[nH]c(C)c2-c2nc3ccccc3s2)c(O)cc1OCC(=O)NN,inactive
7,O=C(NN=C1C2CC3CC1CC(Cl)(C3)C2)c1ccccn1,inactive
8,C=CCc1cccc2cc(C(=O)NNC(=O)CC#N)c(=O)oc12,inactive
9,O=C(O)c1cccc(NC2=C(Cl)C(=O)c3ccccc3C2=O)c1,inactive
10,NC(=S)N=Nc1c(O)[nH]c2ccccc12,inactive
11,CCNC(=S)NNC(=O)c1ccccn1,inactive
12,CCOc1ccc(/C=C/C(=O)c2ccccc2)cc1,inactive
13,O=C(N/N=C/c1c(O)ccc2ccccc12)c1ccc[n+](CCO)c1,inactive
14,Cc1cc(/C=C2\C(=O)NC(=O)N(c3cccc(F)c3)C2=O)c(C)n1-c1cc(C(=O)O)cc(C(=O)O)c1,inactive
15,COC(=O)c1ccccc1-c1ccc(C(c2c(C)[nH][nH]c2=O)c2c(C)[nH][nH]c2=O)o1,inactive
16,O=C1NC(=O)/C(=C/c2ccc(N3CCOCC3)o2)N1,inactive
17,COc1ccc2cc3c(N)c(C(=O)NCc4ccco4)sc3nc2c1,inactive
18,COc1cc(OC)c2ccc(=O)oc2c1C(CC(=O)N1CCCC1)c1ccc(N(C)C)cc1 (stereo not given),inactive
19,Cc1nc2c(N=Nc3ccccc3F)c(N)nn2c(N)c1C#N,inactive
20,COc1ccc(C2NC(=O)N(CCCC(=O)O)C(C)=C2C(=O)OCc2ccccc2)cc1 (stereo not given),inactive
21,O=C1SC(SCc2ccccc2)=N/C1=C\c1ccc(C(=O)O)cc1,inactive
22,COC1=C(Nc2ccc(O)cc2)C(=O)c2ccccc2C1=O,inactive

row,SMILES,"activity change, negative = inhibition"
1,CC(=O)Nc1ccc(N=NC2C(=O)N(C(N)=S)N=C2C)cc1 (stereo not given),inactive
2,CN(N)c1ccc2c(C(F)(F)F)cc(C(F)(F)F)nc2n1,inactive
3,COc1ccccc1-c1cn[nH]c1-c1ccc(O)cc1O,inactive
4,COc1ccc(C(=O)NNC(=O)c2ccc3ccccc3c2O)cc1,inactive
5,Cc1cc(C)c[n+](-c2[nH]c(=O)sc2/C=N/N=C(\N)[S-])c1,inactive
6,Cn1c(C2=C(O)CN(c3ccccc3)C2=N)nc2ccccc21,inactive
7,O=C(Nc1cccnc1)c1cccs1,inactive
8,O=C(O)CC1S/C(=N/N=C/c2ccc(-c3ccccc3[N+](=O)[O-])o2)NC1=O (stereo not given),inactive
9,Cn1c(CNC(=O)c2ccc(F)cc2)cc2ccccc21,inactive
10,O=C(NNc1ccccc1)C(=O)NNS(=O)(=O)c1ccc(CCCl)cc1,inactive
11,CCOc1ccc(/C=N/n2c(C)nc3ccccc3c2=O)cc1,inactive
12,O=C1N=c2ccccc2=C1c1[nH]c(=S)[nH]c1O,inactive
13,COC(=O)c1cccc2nc3c(C(C)O)cccc3nc12 (stereo not given),inactive
14,Cc1cccc(C(=O)NNc2ncnc3c2cnn3C)c1,inactive
15,Nc1ccc(Cc2ccc(N)c(C(=O)O)c2)cc1C(=O)O,inactive
16,NC1=NC(=O)/C(=C\c2ccc(O)c([N+](=O)[O-])c2)S1,inactive
17,COCCNc1ncnc2nc[nH]c12,inactive
18,FC(F)(F)c1nc2cc3nc4ccccc4[nH]c3cc2n1,inactive
19,CCN=c1scc(-c2ccco2)n1/N=C/c1ccc(O)cc1,inactive
20,Cc1ccc(O)c(-c2cc(C(=O)Nc3ccc(S(=O)(=O)Nc4nc(C)cc(C)n4)cc3)[nH]n2)c1,inactive
21,N#C/C(=N\Nc1cccc(C(F)(F)F)c1)C(=O)c1ccsc1,inactive
22,CCc1ccc(S(=O)(=O)/N=C2\C=C(Nc3ccc(C(=O)O)cc3)C(=O)c3ccccc32)cc1,inactive

row,SMILES,"activity change, negative = inhibition"
1,O=C(NNC(=O)c1ccc(O)c(Cl)c1)c1cccc(S(=O)(=O)N2CCOCC2)c1,inactive
2,CSc1nsc2nc(=O)c(/C=C3\C(C)=Nc4ccc(C)cc43)c(N)n12,inactive
3,COC(=O)/C(C#N)=C/c1c(-c2ccccc2)nc2n1CCS2,inactive
4,N[C@@H](Cc1ccccc1)C(=O)N1CCC(C(=O)NCC(=O)Nc2ccc(F)cc2)CC1,inactive
5,O=C(NNC(=O)c1ccc([N+](=O)[O-])o1)c1ccccc1,inactive
6,Cc1ccc(C)c(NC(=O)CCC(=O)NNC(=S)Nc2ccccc2)c1,inactive
7,Cc1cccc(C)c1NC(=O)/C(C#N)=C/c1cccs1,inactive
8,Cc1c(NC(=O)c2ccc(=O)oc2)c(=O)n(-c2ccccc2)n1C,inactive
9,Cc1ccc(-c2cc(C(=O)Nc3ccc(S(=O)(=O)Nc4ncccn4)cc3)[nH]n2)c(O)c1C,inactive
10,COCCNc1nnc(SCC(=O)NNC(=O)c2ccc([N+](=O)[O-])cc2)s1,inactive
11,COc1ccc(NCc2n[nH]c(=O)c3ccccc23)cc1,inactive
12,O=C(NC1CCSc2ccccc21)c1ccccc1Br (stereo not given),inactive
13,COc1ccc(N(CCC#N)C(=O)/C(C#N)=C\c2cccs2)cc1,inactive
14,O=C(Nc1cccc2ncccc12)c1ccccc1[N+](=O)[O-],inactive
15,COc1cc2c(cc1OC)-c1c(OC)c(OC)cc3c1C(C2)N(C)CC3 (stereo not given),inactive
16,O=c1[nH]cnc2c1C(c1ccc(Cl)cc1)c1c(nc[nH]c1=O)O2,inactive
17,Cc1c(Br)c(=O)oc2c(Br)c(O)c(O)cc12,inactive
18,CCN(CC)c1ccc(N2C(=O)c3ccccc3C2=O)cc1,inactive
19,Nc1c(C(=O)Nc2cccc(Cl)c2Cl)sc2nc(-c3cccnc3)ccc12,inactive
20,CC(=O)CSc1ncnc2nc[nH]c12,inactive
